Results: US5914336A, “Method of controlling the serum solubility of orally administered torasemide and composition relating thereto” (Boehringer Mannheim GmbH, priority 1998, dated 1999)
Converted amounts (≈) assume the structure as drawn. “And” between values parts separate entries of the source, which are not always exact repeats. Identical values can stand only once. “Also recorded” adds a separate entry of the source. Like-named read-outs stand apart in the source and are kept apart here.

What was measured:
[1] = Dissolution testing of capsules containing 150 mg torasemide in citrate buffer (pH 4.5); type: physicochemical; details: for % dissolved: citrate buffer pH 4.5, 500 ml, 37° C., 150 rpm, 150 mg capsule; for 8 hr solubility, %: citrate, pH 4.5, 8 hr
Protocol: (§1) A blend was prepared of 75 wt. % of modification III and 25 wt. % of modification I, and a similar blend was prepared of 25 wt. % of modification III and 75 wt. % of modification I. These blends were incorporated into capsules containing 150 mg of total torasemide, and pure modification I and pure modification III 150 mg. capsules were also prepared. The capsules were subjected to dissolution testing in water, and in a citrate buffer (pH 4.5), at 37° C. under stirring.

[2] = Dissolution testing of capsules containing 150 mg torasemide in water; type: physicochemical; details: for % dissolved: 500 ml, 37° C., 150 rpm, 150 mg capsule
Protocol: as §1, with “FIG. 4 is a plot similar to that of FIG. 3, but in water rather than citrate buffer; FIG. 6 is a plot similar to that of FIG. 5, but in water. In this and the following examples, microfine torasemide of modification I and microfine torasemide of modification III were blended together. A” for “A”

[3] = Water content after storing in relative humidity of 92% at 25° C.; type: physicochemical; details: 92% relative humidity, Mod. III value depending on particle size
Protocol: |Water content (%) after storing in relative humidity |of 92% at 25° C. on particle size

[4] = earlier patents/knowledge, storage of pure active material or in tablets, cited from earlier work
[5] = Solubility at 20° C. at pH 4.90; type: physicochemical
Protocol: Solubility (mmol L^-1) at 20° C. at pH 4.90

[6] = Heats of fusion, transition and solution of crystal forms; type: physicochemical; details: for Heat of fusion ± 95%-c.i.: heating rate 5K min^-1; for Heat of solution: in I-butanol at 20° C.
[7] = in vivo; cited from earlier work
[8] = tested on: sodium-potassium-2 chloride transport mechanism in the ascending limb of the loop of Henle; details: loop diuretic; cited from earlier work
[9] = Solubility of modification III versus modification I above pH 3; type: physicochemical; details: above pH 3 and especially at a pH of approximately 7.4
[10] = Serum concentration of torasemide after oral administration to rats; type: in vivo, rat; details: male rats (FIG. 1)
From the text: FIG. 1 is a plot of serum concentration levels in male rats of torasemide of modification I and modification III versus time after oral administration;
FIG. 2 is similar to FIG. 1, but reflects the serum concentrations in female rats;

[11] = Stability / rearrangement of crystal modification; type: physicochemical

% dissolved ([1]; 0 minutes) [%] | % dissolved ([1]; 15 minutes) | % dissolved ([1]; 30 minutes) | % dissolved ([1]; 45 minutes) | % dissolved ([1]; 60 minutes) | % dissolved ([1]; 120 minutes) | % dissolved ([1]; 180 minutes) | % dissolved ([1]; 240 minutes) | % dissolved ([1]; 300 minutes) | % dissolved ([1]; 480 minutes) | % dissolved ([2]; 0 minutes) [%] | % dissolved ([2]; 15 minutes) | % dissolved ([2]; 30 minutes) | % dissolved ([2]; 45 minutes) | % dissolved ([2]; 60 minutes) | % dissolved ([2]; 120 minutes) | % dissolved ([2]; 180 minutes) | % dissolved ([2]; 240 minutes) | % dissolved ([2]; 300 minutes) | % dissolved ([2]; 480 minutes) | SMILES | also measured
0 | 13,4% | 30,3% | 38,3% | 43,5% | 54,9% | 61% | 63,2% | 63,1% | 63,9% | 0 | 30,6% | 51,3% | 58,5% | 61,6% | 64,9% | 65,9% | 66,3% | 66,8% | 67,3% | Cc1cccc(Nc2ccncc2S(=O)(=O)NC(=O)NC(C)C)c1 [Mod. I, 1-isopropyl-3-[(4-m-toluidino-3pyridyl)-sulphonyl)-urea] | 8 hr solubility, % ([1]; listed as Modification I): 63.9%; 8 hr solubility, % ([2]; listed as Modification I): 67.3%; Water content after storing in relative humidity of 92% at 25° C. [3]: 0.2%; stability / rearrangement of modification ([4]; listed as modification I): stable in tablets and did not rearrange again back into modification II; Solubility [5]: 340 µM (≈ 118 µg/mL); Heat of fusion ± 95%-c.i. [6]: 8.89 ± 0.454 kcal/mol; Heat of solution [6]: 8.63 kcal/mol
– | – | – | – | – | – | – | – | – | – | – | – | – | – | – | – | – | – | – | – | Cc1cccc(Nc2ccncc2S(=O)(=O)NC(=O)NC(C)C)c1 [Modification II, 1-isopropyl-3-[(4-m-toluidino-3pyridyl)-sulphonyl)-urea] | stability / rearrangement of modification [4]: relatively unstable; also recorded: in the case of storage of the pure active material, does not change; also recorded: rearranges more or less quickly into modification I
– | – | – | – | – | – | – | – | – | – | – | – | – | – | – | – | – | – | – | – | Cc1cccc(Nc2ccncc2S(=O)(=O)NC(=O)NC(C)C)c1 [Torasemide, 1-isopropyl-3-[(4-m-toluidino-3pyridyl)-sulphonyl)-urea] | diuresis compared with other standard loop diuretics [7]: less intense initial diuresis and a sustained duration of action; mechanism of action [8]: blocks the sodium-potassium-2 chloride transport mechanism in the ascending limb of the loop of Henle
0 | 63,3% | 91% | 97,4% | 99,5% | 101% | 101,5% | 101,6% | 101,8% | 102,5% | 0 | 62,8% | 96,6% | 100,4% | 101,3% | 102,1% | 102,5% | 102,8% | 102,2% and 103,2% | 103,3% | Cc1cccc(Nc2ccncc2S(=O)(=O)NC(=O)NC(C)C)c1 [Mod. III, 1-isopropyl-3-[(4-m-toluidino-3pyridyl)-sulphonyl)-urea] | 8 hr solubility, % ([1]; listed as Modification III): 102.5%; solubility versus modification I [9]: significantly greater solubility than modification I; serum concentration relative to modification I ([10]; 20 minutes after oral administration): more than twice the serum concentration as modification I; serum concentration relative to modification I ([10]; 40 minutes after oral administration): almost twice the serum concentration as modification I; 8 hr solubility, % ([2]; listed as Modification III): 103.3%; Water content after storing in relative humidity of 92% at 25° C. [3]: 1.2%; Solubility [5]: 930 µM (≈ 324 µg/mL); Heat of transition ± 95%-c.i. ([6]; at about 159° C., the difference of the heats of fusion): -1.96 ± 0.502 kcal/mol; Heat of fusion ± 95%-c.i. [6]: 7.15 ± 0.22 kcal/mol; Heat of solution [6]: 7.12 kcal/mol; stability of modification [11]: stable
